Reference: patent publication US10112941B2, “Tricyclic compounds as anticancer agents” (BRISTOL-MYERS SQUIBB COMPANY, priority 2013, dated 2018)

target: BRD4 (Homo sapiens, UniProt O60885); test: Time Resolved Fluorescence Resonance Energy Transfer (TR-FRET) binding assay, BRD4; conditions: one of the FRET assays described; read-out: FRET BRD4 IC50

| SMILES | IC50 [nM] |
| --- | --- |
| Cc1noc(C)c1-c1cnc2c3ccc(C(C)(C)O)cc3n(C(c3ncccc3F)C3CCOCC3)c2c1 (single isomer, unassigned) [Example 346, 2-[3-(Dimethyl-1,2-oxazol-4-yl)-5-[(3-fluoropyridin-2-yl)(oxan-4-yl)methyl]-5H-pyrido[3,2-b]indol-7-yl]propan-2-ol] | < 5 |
| COC(=O)NC(C)(C)c1ccc2c3ncc(-c4c(C)nnn4C)cc3n([C@H](c3ccccc3)C3CCOCC3)c2c1 [Example 412, Methyl N-{2-[3-(dimethyl-1H-1,2,3-triazol-5-yl)-5-[(S)-oxan-4-yl(phenyl)methyl]-5H-pyrido[3,2-b]indol-7-yl]propan-2-yl}carbamate] | < 5 |
| Cc1nnn(C)c1-c1cnc2c3c(S(C)(=O)=O)cccc3n([C@H](c3ccccc3)C3CCOCC3)c2c1 [Example 259, 5-{9-Methanesulfonyl-5-[(S)-oxan-4-yl(phenyl)methyl]-5H-pyrido[3,2-b]indol-3-yl}-1,4-dimethyl-1H-1,2,3-triazole] | < 5 |
| Cc1nnn(C)c1-c1cnc2c3cc(Cl)c(C(C)(C)O)cc3n([C@H](c3ccccc3)C3CCOCC3)c2c1 [Example 409, 2-[8-Chloro-3-(dimethyl-1H-1,2,3-triazol-5-yl)-5-[(S)-oxan-4-yl(phenyl)methyl]-5H-pyrido[3,2-b]indol-7-yl]propan-2-ol] | < 5 |
| [2H]C([2H])([2H])c1nnn(C)c1-c1cnc2c3c(S(C)(=O)=O)cccc3n([C@H](c3ccccc3)C3CCOCC3)c2c1 [Example 268, 5-{9-Methanesulfonyl-5-[(S)-oxan-4-yl(phenyl)methyl]-5H-pyrido[3,2-b]indol-3-yl}-4-(^2H3)methyl-1-methyl-1H-1,2,3-triazole] | < 5 |
| Cc1nnn(C)c1-c1cnc2c3ccc(C(C)(C)O)cc3n(C(c3cc(F)ccc3F)C3CCOCC3)c2c1 (single isomer, unassigned) [Example 132, 2-{5-[(2,5-Difluorophenyl)(oxan-4-yl)methyl]-3-(dimethyl-1H-1,2,3-triazol-5-yl)-5H-pyrido[3,2-b]indol-7-yl}propan-2-ol] | < 5 |
| Cc1nnn(C)c1-c1cnc2c3ccc(C(C)(C)NC(=O)CN(C)C)cc3n(C(c3ccccc3)C3CCOCC3)c2c1 (single isomer, unassigned) [Example 167, N-{2-[3-(Dimethyl-1H-1,2,3-triazol-5-yl)-5-[oxan-4-yl(phenyl)methyl]-5H-pyrido[3,2-b]indol-7-yl]propan-2-yl}-2-(dimethylamino)acetamide] | < 5 |
| Cc1nnn(C)c1-c1cnc2c3c(F)cc(C(C)(C)O)cc3n(C(c3cccc(F)c3F)C3CCOCC3)c2c1 (single isomer, unassigned) [Example 108, 2-{5-[(2,3-Difluorophenyl)(oxan-4-yl)methyl]-3-(dimethyl-1H-1,2,3-triazol-5-yl)-9-fluoro-5H-pyrido[3,2-b]indol-7-yl}propan-2-ol] | < 5 |
| Cc1nnn(C)c1-c1cnc2c3c(F)cc(C(C)(C)O)cc3n(C(c3cc(F)ccc3F)C3CCOCC3)c2c1 (single isomer, unassigned) [Example 107, 2-{5-[(2,5-Difluorophenyl)(oxan-4-yl)methyl]-3-(dimethyl-1H-1,2,3-triazol-5-yl)-9-fluoro-5H-pyrido[3,2-b]indol-7-yl}propan-2-ol] | < 5 |
| Cc1nnn(C)c1-c1cnc2c3ccc(C(C)(C)O)cc3n([C@H](c3ccccn3)C3CCOCC3)c2c1 [Example 62] | < 25 |
| Cc1nnn(C)c1-c1cnc2c3c(S(C)(=O)=O)cccc3n(C(c3c(F)cc(F)cc3F)C3CCOCC3)c2c1 (single isomer, unassigned) [Example 117, 5-{9-Methanesulfonyl-5-[oxan-4-yl(2,4,6-trifluorophenyl)methyl]-5H-pyrido[3,2-b]indol-3-yl}-1,4-dimethyl-1H-1,2,3-triazole] | < 5 |
| Cn1nnc(CF)c1-c1cnc2c3ccc(S(C)(=O)=O)cc3n([C@H](c3ccccc3)C3CCOCC3)c2c1 [Example 180, 4-(Fluoromethyl)-5-{7-methanesulfonyl-5-[(S)-oxan-4-yl(phenyl)methyl]-5H-pyrido[3,2-b]indol-3-yl}-1-methyl-1H-1,2,3-triazole] | < 5 |
| Cc1noc(C)c1-c1cnc2c3ccc(C(C)(C)O)cc3n(C(c3c(F)cccc3F)C3CCOCC3)c2c1 (single isomer, unassigned) [Example 144, 2-{5-[(2,6-Difluorophenyl)(oxan-4-yl)methyl]-3-(dimethyl-1,2-oxazol-4-yl)-5H-pyrido[3,2-b]indol-7-yl}propan-2-ol] | < 5 |
| Cn1nnc(N)c1-c1cnc2c3ccc(C(C)(C)O)cc3n([C@H](c3ccccc3)C3CCOCC3)c2c1 [Example 389, 2-[3-(4-Amino-1-methyl-1H-1,2,3-triazol-5-yl)-5-[(S)-oxan-4-yl(phenyl)methyl]-5H-pyrido[3,2-b]indol-7-yl]propan-2-ol] | < 5 |
| Cc1nnn(C)c1-c1cnc2c3ccc(CS(C)(=O)=O)cc3n([C@@H](c3ccc(Cl)cn3)C3CCOCC3)c2c1 [Example 334] | < 5 |
| Cc1nnn(C)c1-c1cnc2c3ccc([C@@](C)(O)C4CC4)c(F)c3n([C@H](c3ccccc3)C3CCOCC3)c2c1 [Example 431, (1S)-1-Cyclopropyl-1-[3-(dimethyl-1H-1,2,3-triazol-5-yl)-6-fluoro-5-[(S)-oxan-4-yl(phenyl)methyl]-5H-pyrido[3,2-b]indol-7-yl]ethan-1-ol] | < 5 |

| SMILES | IC50 [nM] |
| --- | --- |
| [2H]C([2H])([2H])c1nnn(C)c1-c1cnc2c3ccc(S(C)(=O)=O)cc3n(C(c3ncccc3F)C3CCC(F)(F)CC3)c2c1 (centres unmarked) [Example 239, 2-[(4,4-Difluorocyclohexyl)({7-methanesulfonyl-3-[4-(^2H3)methyl-1-methyl-1H-1,2,3-triazol-5-yl]-5H-pyrido[3,2-b]indol-5-yl})methyl]-3-fluoropyridine] | < 5 |
| Cc1noc(C)c1-c1cnc2c3ccc(C(C)(C)O)cc3n(C(CCC(F)(F)F)c3cnoc3)c2c1 (single isomer, unassigned) [Example 36, 2-[3-(Dimethyl-1,2-oxazol-4-yl)-5-[4,4,4-trifluoro-1-(1,2-oxazol-4-yl)butyl]-5H-pyrido[3,2-b]indol-7-yl]propan-2-ol] | < 25 |
| Cc1nnn(C)c1-c1cnc2c3ccc(C(C)(C)O)cc3n(C(c3ccc(Cl)cc3)C3CCOCC3)c2c1 (single isomer, unassigned) [Example 399] | < 5 |
| Cc1nnn(C)c1-c1cnc2c3ccc(CS(C)(=O)=O)cc3n([C@H](c3ncccc3Cl)C3CCOCC3)c2c1 [Example 339] | < 5 |
| [2H]C([2H])([2H])c1nnn(C)c1-c1cnc2c3c(OC)ccc(S(C)(=O)=O)c3n([C@H](c3ccccc3F)C3CCOCC3)c2c1 [Example 189, 5-{5-[(S)-(2-Fluorophenyl)(oxan-4-yl)methyl]-6-methanesulfonyl-9-methoxy-5H-pyrido[3,2-b]indol-3-yl}-4-(^2H3)methyl-1-methyl-1H-1,2,3-triazole] | < 5 |
| Cc1nnn(C)c1-c1cnc2c3c(F)ccc(CO)c3n([C@H](c3ccccc3)C3CCOCC3)c2c1 [Example 152, [3-(Dimethyl-1H-1,2,3-triazol-5-yl)-9-fluoro-5-[(S)-oxan-4-yl(phenyl)methyl]-5H-pyrido[3,2-b]indol-6-yl]methanol] | < 5 |
| Cc1nnn(C)c1-c1cnc2c3cccc(S(C)(=O)=O)c3n([C@H](c3ccccc3)C3CCOCC3)c2c1 [Example 376, 5-{6-Methanesulfonyl-5-[(S)-oxan-4-yl(phenyl)methyl]-5H-pyrido[3,2-b]indol-3-yl}-1,4-dimethyl-1H-1,2,3-triazole] | < 5 |
| Cc1nnn(C)c1-c1cnc2c3ccc(S(C)(=O)=O)cc3n(C(c3ccccc3)C3CCC(F)(F)CC3)c2c1 (single isomer, unassigned) [Example 157, 5-{5-[(4,4-Difluorocyclohexyl)(phenyl)methyl]-7-methanesulfonyl-5H-pyrido[3,2-b]indol-3-yl}-1,4-dimethyl-1H-1,2,3-triazole] | < 5 |
| Cc1nnn(C)c1-c1cnc2c3ccc(C(C)(C)O)cc3n(C(c3ccccc3Cl)C3CCOCC3)c2c1 (single isomer, unassigned) [Example 403] | < 5 |
| [2H]C([2H])([2H])c1nnn(C)c1-c1cnc2c3ccc(C(C)(C)O)cc3n(C(c3ccc(Cl)cn3)C3CCOCC3)c2c1 (single isomer, unassigned) [Example 320] | < 5 |
| Cc1nocc1-c1cnc2c3ccc(C(C)(C)O)cc3n(C(c3ccc(F)cc3)C3CCOCC3)c2c1 (single isomer, unassigned) [Example 42, 2-{5-[(4-Fluorophenyl)(oxan-4-yl)methyl]-3-(3-methyl-1,2-oxazol-4-yl)-5H-pyrido[3,2-b]indol-7-yl}propan-2-ol] | < 25 |
| Cc1noc(C)c1-c1cnc2c3ccc(S(C)(=O)=O)cc3n(Cc3ccccc3)c2c1 [Example 52, 4-(5-Benzyl-7-(methylsulfonyl)-5H-pyrido[3,2-b]indol-3-yl)-3,5-dimethyl-1,2-oxazole] | < 25 |
| COc1nnn(C)c1-c1cnc2c3ccc(C(C)(O)C4CC4)c(F)c3n([C@H](c3ccccc3)C3CCOCC3)c2c1 (stereo partly drawn) [Example 439, 1-Cyclopropyl-1-[6-fluoro-3-(4-methoxy-1-methyl-1H-1,2,3-triazol-5-yl)-5-[(S)-oxan-4-yl(phenyl)methyl]-5H-pyrido[3,2-b]indol-7-yl]ethan-1-ol] | < 5 |
| [2H]C([2H])([2H])c1nnn(C)c1-c1cnc2c3c(NCC(C)(C)N)ccc(S(C)(=O)=O)c3n([C@H](c3ccccc3)C3CCOCC3)c2c1 [Example 226, N-(2-Amino-2-methylpropyl)-6-methanesulfonyl-3-[4-(^2H3)methyl-1-methyl-1H-1,2,3-triazol-5-yl]-5-[(S)-oxan-4-yl(phenyl)methyl]-5H-pyrido[3,2-b]indol-9-amine] | < 5 |
| Cc1noc(C)c1-c1cnc2c3ccc(C(C)(C)O)cc3n([C@@H](c3ccccc3)C3CC3)c2c1 [Example 12] | < 25 |
| Cc1nnn(C)c1-c1cnc2c3ccc(C(C)(C)O)cc3n([C@H](CCC(F)(F)F)c3ccccc3)c2c1 [Example 58] | < 5 |
